How the values were obtained:
[1] = target: Chymotrypsinogen A (Bos taurus) (UniProt P00766); test: Concentration required for the inhibition of Chymotrypsinogen
[2] = target: T1, Dihydrofolate reductase (Homo sapiens) (UniProt P00374); test: Concentration required for the inhibition of dihydrofolate reductase
T1 sequence (whole entry): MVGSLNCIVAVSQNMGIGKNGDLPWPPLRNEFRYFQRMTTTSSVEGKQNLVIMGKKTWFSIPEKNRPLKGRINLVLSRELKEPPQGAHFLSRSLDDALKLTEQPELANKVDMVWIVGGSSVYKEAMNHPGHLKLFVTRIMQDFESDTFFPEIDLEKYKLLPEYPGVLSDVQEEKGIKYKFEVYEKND

- Concentration [1]: 40 µM
- Concentration [2]: 0.4 µM
Structure (SMILES): Nc1c(/N=N/c2ccc(-c3ccc(/N=N/c4cc(S(=O)(=O)O)c5ccccc5c4N)cc3)cc2)cc(S(=O)(=O)O)c2ccccc12

— ChEMBL document CHEMBL1145818, “Effect of detergent on "promiscuous" inhibitors” (J Med Chem, 2003)
